Assay results reported in patent US20200253926A1, “THERAPEUTIC COMBINATIONS” (SUPERSALUS, INC., priority 2019, published 2020).
Structures can show the parent of a compound that is named as a salt. Values belong to the compound of their own block, whether it stands above or below them.

Key:
[1] = Hygroscopicity by dynamic vapor sorption (DVS); type: physicochemical
Method: Zofenopril calcium was slurried in ACN. Two molar equivalents of HCl were added. The materials were allowed to slurry overnight. […] On DSC this material has an onset at 162° C. This is in contrast to DSC results for zofenopril calcium which has an onset of 250.3° C. […] On the sorption step up to 65% RH, the material gained 1.2% weight. Above this RH, the material gained an additional 36.9% weight. […] Most of the weight was lost on desorption with significant hysteresis.
Nicorandil free base was dissolved in acetone resulting in a clear solution. A molar equivalent of HCl was added stepwise following which there nucleation with rosettes of aciculars and blades that were birefringent. The resulting material was recovered and shown to be nicorandil HCl form A. The XRPD pattern for this sample is shown in FIG. 16. Based on the single crystal structure, nicorandil hydrochloride form A is anhydrous and contains one nicorandil cation and one chloride anion in the asymmetric unit. On the sorption step up to 75% RH, the material gained 0.5% weight. Above that it gained an additional 52% weight. Most of the weight was lost on desoption with significant hysteresis. The material recovered from DVS was shown by XRPD to be form A (FIG. 18). Solubility of nicorandil HCl form A was tested and shown to be >48 mg/mL which was the limit of the test.

physchem = type: physicochemical; conditions: for solubility: thermodynamic from solid
Method: The hygroscopicity of zofenopril sodium material A was tested using DVS.

portal vein rings = assay: In-vitro rat portal vein ring relaxation (isometric method); type: cell-based, Wistar rats; design: Emax: dose or concentration left out as unconfirmed
Method: The portal vein was recovered from Wistar rats weighing approximately 450 gm, and divided into vein segments. Segments were placed in a bath containing approximately 10 mL of Krebs buffer at pH˜7.4. The vehicle used for treatment was 0.2% DMSO. Portal vein rings were pre-contracted and incubated for 60 min at 32° C. Ring relaxation was measured after 10 minutes of exposure to the test compound(s). Chromakalim served as the positive control for the experiment. Ring relaxation was measured by the isometric method as gram changes. Relaxation of the vein rings in this assay are a function of both KATP channel agonization and NO response. In prior published work, about half of the relaxation response could be attributable to KATP channel agonization and half to a NO-mediated response. Each assay was run in duplicate.
Eight combinations of concentration of zofenopril and nicorandil were tested in the assay. These were 80 and 40 μM nicorandil, 100 and 50 μM zofenopril, 12.5 μM zofenopril+10 μM nicorandil, 12.5 μM zofenopril+20 μM nicorandil, 12.5 μM zofenopril+40 μM nicorandil, and 25 μM zofenopril+40 μM nicorandil.

[2] = following a 5 mg dose; expected value; cited from earlier work
[3] = test system: human umbilical artery segments; conditions: cited from earlier work
aortic rings = conditions: cited from earlier work
NO2 levels = conditions: compared with vehicle treated animals; cited from earlier work
H2S levels = conditions: compared to vehicle treated animals; cited from earlier work
isolated rat hearts = conditions: cited from earlier work
arterial rings = conditions: 100 μM zofenopril; cited from earlier work

- DVS additional weight gain above 65% RH ([1]; above 65% RH, equilibration timed out at all steps): 36.9 % weight
- DVS weight gain on the sorption step up to 65% RH ([1]; up to 65% RH): 1.2 % weight
Compound: zofenopril calcium chloride [Zofenopril calcium chloride form A]

- DVS additional weight gain above 75% RH ([1]; above 75% RH): 52 % weight
- DVS weight gain on the sorption step up to 75% RH ([1]; up to 75% RH): 0.5 % weight
- solubility (physchem): > 48 mg/mL
Compound: O=C(NCCO[N+](=O)[O-])c1cccnc1 [nicorandil HCl form A, nicorandil hydrochloride]

Compound: C[C@H](CSC(=O)c1ccccc1)C(=O)N1C[C@@H](Sc2ccccc2)C[C@H]1C(=O)O [zofenopril sodium material A, zofenopril sodium]
- pH of the solution at the end of the solubility (physchem; pH 10): 10
- solubility (physchem; pH 10, water): > 48 mg/mL

Compound: O=C(NCCO[N+](=O)[O-])c1cccnc1 [nicorandil]
- relaxation response (portal vein rings; 40 μM nicorandil): maximal relaxation response
- Cmax [2]: 15 to 16 µM
- relaxation, % of maximum ([3]; 30 μM nicorandil): about 60%
- relaxation ([3]; 100 μM nicorandil): maximal relaxation

Compound: CC1(C)Oc2ccc(C#N)cc2C(N2CCCC2=O)C1O (stereo not drawn) [Chromakalim, chromakalim]
- relaxation of aortic rings (aortic rings): near maximal relaxation

Compound: CCOC(=O)[C@H](CCc1ccccc1)N[C@@H](C)C(=O)N1[C@H](C(=O)O)C[C@@H]2CCC[C@@H]21 [Ramipril, ramipril]
- plasma and myocardial tissue NO2 levels (NO2 levels): virtually no effect
- plasma and myocardial tissue H2S levels (H2S levels): did not elevate

Compound: C[C@H](CSC(=O)c1ccccc1)C(=O)N1C[C@@H](Sc2ccccc2)C[C@H]1C(=O)O [zofenopril]
- maximal response, relaxation of aortic rings (aortic rings): 89%
- relaxation, % of the positive control (portal vein rings; 50 μM zofenopril): 60%
- relaxation, % of the positive control (portal vein rings; 100 μM zofenopril, positive control chromakalim, 10 min exposure): about 85%
- Emax (portal vein rings; Rattus norvegicus, read-out: relaxation, % of the maximum response for zofenopril): ~70%
- pre-ischemic coronary flow or contractile function (isolated rat hearts): little effect
- reperfusion end diastolic pressure (EDP) and lactate dehydrogenase (LDH) release (isolated rat hearts; reversed by glyburide and 5-HD): significantly reduced
- reperfusion function (isolated rat hearts; reversed by glyburide and 5-HD): significantly improved
- plasma and myocardial tissue NO2 levels (NO2 levels): significantly increased
- relaxation response (arterial rings): maximal relaxation response
- plasma and myocardial tissue H2S levels (H2S levels): directly elevating plasma and myocardial tissue H2S levels
